This is an account of results in paper PMC8816521, “Flux-Based Formulation Development—A Proof of Concept Study” (The AAPS Journal, 2022).

≈ marks a conversion by molar mass, not a printed value. Read-outs that look alike come from different tables or passages of the source.

Details of data set [1]: method as in PMID 18501462, PMID 31458196. The note with it: between pH 3 and 8; cited from earlier work.
A short description of data set [2]: PAMPA for evaluating the effect of formulation additives on TEL permeability. The note with it: for Pe: acceptor pH 7.4, 37°C. Type of data set: in vitro ADME. The method, then:
Each well of the top (donor) compartment of 96-well […]™ PAMPA sandwich (Pion Inc., Billerica MA, USA) was coated with 4 μL of n-dodecane. Before forming the sandwich, the bottom (acceptor) plate was prefilled with 180 μL of pH = 7.4 Prisma^HT buffer. The donor plate was filled with 200 μL of FaSSIF buffer with pre-dissolved TEL and formulation additives. The resultant sandwich was incubated at 37°C, and both compartments were stirred at 60 μm (ABL) with Gut-Box™ (Pion Inc., Billerica MA, USA). After 30 min, the PAMPA sandwich was separated, and 100 μL of both the donor and acceptor compartments were transferred to UV plates (UV-star micro plate, clear, flat bottom, half area, Greiner Group AG, Kremsmünster, Austria). UV absorption (230–400 nm) was measured with Tecan Infinite M200 (Tecan Group Ltd., Mannedorf, Switzerland) driven by PAMPA Explorer software™ (Pion Inc., Billerica MA, USA). Three parallel measurements were performed, and the data were measured with six replicates on every single plate.
(§1) The flux across the membrane was calculated using the following equation: 1 Jt=Δn/A*Δt
(§2) where the flux (J) of a drug through the membrane is defined as the amount (n) of drug crossing a unit area (A) perpendicular to its flow per unit time (t). 2 Pe=J/CD where the Pe is the effective permeability of the drug and CD is donor concentration.
At first, an excipient screening on the PAMPA platform was carried out. The excipients of the available TEL formulations and commonly used standard excipients were involved in the investigation of API-excipient interaction. The concentration of the excipients was determined by referring the usual amount of additives in one tablet to 900 mL dissolution media. Due to the experimental differences in the applied doses, the flux data were considered misleading, and the permeability value was used since it is normalized by the donor concentration.

Data set [3] in a line: Kinetic solubility in FaSSIF with pre-dissolved additives (in situ UV probes, ZIM). The class given is physicochemical. Particulars: 37 °C. Here is the method: Note that in the context of this manuscript, solubility measured by this method will be called kinetic solubility because the form of the solid phase precipitating during these assays was not characterized. […] Ten milliliters of dissolution medium consisting of equilibrated fasted state simulated intestinal fluid (FaSSIF) buffer containing pre-dissolved additives was stirred at 200 rpm and held at 37°C by circulating water through a heating block mounted to a Pion μDISS™ profiler (Pion Inc., Billerica MA, USA). The stock solution was added in 20 μL aliquots to the dissolution medium. 1 M HCl was used to readjust the pH of the media after every addition of the stock solution. During and after addition of the stock solution, UV probes connected to a Pion Rainbow™ Dynamic Dissolution Monitor® system were used to detect changes in UV spectra, thus enabling the detection of precipitation, which provides information about the kinetic solubility limit.
The zero intercept method (ZIM) was implemented in the AuPRO™ software (Pion Inc., Billerica MA, USA), which was considered a suitable method for detecting the solid nanoparticles in solution. It can be noticed that the second derivative spectrum of a particular compound usually crosses the wavelength axis at specific wavelengths that we will call zero intercept method points or ZIM points (λZIM). The ZIM points are characteristic of the compound and are independent of the concentration. The second derivative values at λZIM are expected to be zero […] the compound is fully dissolved. After a critical concentration, solid particles appear in the solution, and a ZIM point shift can be observed. In case of TEL, the ZIM evaluation was carried out at a wavelength of 318 nm.

A short description of the next data set: Solubility of TEL. Type of data set: physicochemical.
Data set [4] in a line: Large volume dissolution-permeation (MacroFLUX). Type of data set: in vitro ADME. The note with it: large scale; donor SGF pH 1.6 converted to FaSSIF pH 6.5 after 30 min, acceptor pH 7.4, 37°C, calculated between 70 and 100 min.
Description: Final dosage forms of TEL were tested using MacroFLUX^TM (Pion Inc., Billerica MA, USA). […] The flux and permeability values were calculated using Eqs. (1) and (2) between 70 and 100 min.
The MacroFLUX system equipped with in situ fiber optic concentration monitoring was used in this final investigation. The same media conversion protocol as in the case of small volume dissolution-permeation measurements was applied in the dissolution vessel [28]. Micardis, the brand formulation, and the pure amorphous drug were used as references.
Receiver chamber integrated with permeation membrane, overhead stirrer and fiber optic UV probe was inserted in the standard 900 mL vessel of USP 2 apparatus (Erweka DT 126 Dissolution Tester, Heusenstamm Germany). A filter-supported artificial membrane (hydrophobic PVDF, polyvinylidenfluoride, 0.45 μm pore size, 3.8 cm^2) impregnated with 50 μL of n-dodecane was separating the dissolution (donor) compartment from the receiver compartment containing 13 mL of pH 7.4 (Prisma^HT, Pion Inc.). The experiment began in 850 mL of pH 1.6 buffer simulating gastric conditions (SGF) on the donor side and then after 30 minutes media in the dissolution vessel was converted to fasted state simulated intestinal fluid (FaSSIF V1) (pH 6.5) by adding 212.5 mL of specially formulated concentrate containing SIF powder. […]
The nature of data set [5]: Small volume dissolution-permeation (MicroFLUX). The note with it: small scale; donor pH 1.6 converted to FaSSIF pH 6.5 after 30 min, acceptor pH 7.4, 37°C, calculated between 70 and 100 min. The class given is in vitro ADME. The method, then: as §1, §2
Electrospun formulations of TEL were tested using μFLUX (Pion Inc., Billerica MA, USA) apparatus which consists of a donor and an acceptor chamber separated by an artificial membrane (PVDF, polyvinylidenfluoride, 0.45 μm, 1.54 cm^2) impregnated with 25 μL n-dodecane to form a lipophilic barrier between the donor and acceptor chambers. In case of oral drug delivery, the donor chamber represents the stomach’s condition, while the 18 mL pH 7.4 buffer of acceptor chamber represents the blood circulation. The attempt was started in 16 mL pH 1.6 buffer solution; then after 30 min, media in the dissolution vessel was converted to FaSSIF (pH 6.5) by adding 4 mL of SIF concentrate. Both chambers were stirred at 250 rpm at 37°C to keep the thickness of the unstirred aqueous layer on minimum. In both chambers, the API concentration was followed by immersed UV probes connected to the Rainbow instrument (Pion Inc., Billerica MA, USA). The flux and permeability values were calculated using Eqs. (1) and (2) between 70 and 100 min. […]

For the molecule `CCCc1nc2c(C)cc(-c3nc4ccccc4n3C)cc2n1Cc1ccc(-c2ccccc2C(=O)O)cc1` [TEL, telmisartan], the solubility – broadly, how much of the substance goes into solution per volume – is “practically insoluble” in data set [1] and under 1 µg/mL in “Solubility of TEL” (pH 6.5, crystalline TEL in FaSSIF media). Further, the Papp at 30 min in data set [2] (PAMPA, excipient-free TEL on the plate of the additive in that table row, FaSSIF donor, 37°C, read-out: Reference Pe) came to 111 ×10⁻⁶ cm/s. The Pe in data set [2] (TEL with HMPC 2910 212 μg/mL in FaSSIF donor, 30 min) is 1.22 10^−4 cm/sec; in data set [2] (TEL with HPMC-AS 212 μg/mL in FaSSIF donor, 30 min), 1.28 10^−4 cm/sec; in data set [2] (TEL with HPβCD 1386 μg/mL in FaSSIF donor, 30 min), 1.21 10^−4 cm/sec; in data set [2] (TEL with Lactose monohydrate 667 μg/mL in FaSSIF donor, 30 min) it was 1.39 10^−4 cm/sec; in data set [2] (TEL with Mannitol 667 μg/mL in FaSSIF donor, 30 min), 1.23 10^−4 cm/sec; in data set [2] (TEL with PVP K30 212 μg/mL in FaSSIF donor, 30 min), 1.31 10^−4 cm/sec. The Pe in data set [2] (TEL with PVP K90 212 μg/mL in FaSSIF donor, 30 min) is given as 1.25 10^−4 cm/sec; in data set [2] (TEL with SDS 850 μg/mL in FaSSIF donor, 30 min) it was 0.83 10^−4 cm/sec; in data set [2] (TEL with Sorbitol 667 μg/mL in FaSSIF donor, 30 min) it was 1.42 10^−4 cm/sec; in data set [2] (TEL with Tween 80 0.45 μg/mL in FaSSIF donor, 30 min), 0.86 10^−4 cm/sec. Further, in data set [2] (excipient-free TEL on the plate of the additive in that table row, FaSSIF donor, 37°C, 30 min), the “Reference Pe” value is on record as 1.16 10^−4 cm/sec. The kinetic solubility – broadly, solubility judged after dilution from a stock solution rather than from solid – in data set [3] (FaSSIF buffer with pre-dissolved additive, pH 6.5, aqueous with cosolvent or surfactant or cyclodextrin, TEL in FaSSIF with HPβCD 1386 μg/mL) came out at 37.5 µg/mL (≈ 72.9 µM); in data set [3] (FaSSIF buffer with pre-dissolved additive, pH 6.5, aqueous with cosolvent or surfactant or cyclodextrin, TEL in FaSSIF with SDS 850 μg/mL), 45.9 µg/mL (≈ 89.1 µM); in data set [3] (FaSSIF buffer with pre-dissolved additive, pH 6.5, aqueous with cosolvent or surfactant or cyclodextrin, TEL in FaSSIF with Tween 80 0.45 μg/mL), 64.3 µg/mL (≈ 125 µM); in data set [3] (FaSSIF buffer with pre-dissolved additive, pH 6.5, fassif, TEL in FaSSIF with HMPC 2910 212 μg/mL) it was 30.9 µg/mL (≈ 60 µM); in data set [3] (FaSSIF buffer with pre-dissolved additive, pH 6.5, fassif, TEL in FaSSIF with HPMC-AS 212 μg/mL), 34.1 µg/mL (≈ 66.3 µM); in data set [3] (FaSSIF buffer with pre-dissolved additive, pH 6.5, fassif, TEL in FaSSIF with Lactose monohydrate 667 μg/mL), 32.8 µg/mL (≈ 63.7 µM). The kinetic solubility in data set [3] (FaSSIF buffer with pre-dissolved additive, pH 6.5, fassif, TEL in FaSSIF with Mannitol 667 μg/mL) was determined as 39.7 µg/mL (≈ 77.1 µM); in data set [3] (FaSSIF buffer with pre-dissolved additive, pH 6.5, fassif, TEL in FaSSIF with PVP K30 212 μg/mL), 34.7 µg/mL (≈ 67.4 µM); in data set [3] (FaSSIF buffer with pre-dissolved additive, pH 6.5, fassif, TEL in FaSSIF with PVP K90 212 μg/mL) it was 34.4 µg/mL (≈ 66.8 µM); in data set [3] (FaSSIF buffer with pre-dissolved additive, pH 6.5, fassif, TEL in FaSSIF with Sorbitol 667 μg/mL) it was 30.7 µg/mL (≈ 59.7 µM); in data set [3] (FaSSIF buffer, pH 6.5, fassif, TEL in FaSSIF, no additive (0 μg/mL)) it was 37.3 µg/mL (≈ 72.4 µM). In the data set “Solubility of TEL” (1 M NaOH solution, aqueous), the “Solubility in 1 M NaOH solution” value was “dissolves extremely well”.

`CCCc1nc2c(C)cc(-c3nc4ccccc4n3C)cc2n1Cc1ccc(-c2ccccc2C(=O)O)cc1` [Tel_amorphous, telmisartan]: the Pe was 1.03 10^−4 cm/sec in data set [4] and 1.19 10^−4 cm/sec in data set [5].
